A short description of series [1]: Semi-thermodynamic aqueous solubility of compound. It counts as physicochemical. The settings on record: buffer; read-out: Therm_solubility.
Series [2] deals with ME-1. As to the kind of experiment: Induction of differentiation in human ME-1 cells assessed as reduction in cell number at 10 nM incubated for 4 days by acridine orange/DAPI staining based analysis. The settings on record: time 4.0 day. The series is classed as functional.
The subject of series [3] is THP-1. As to the kind of experiment: Induction of differentiation in human THP-1 cells assessed as reduction in cell number at 10 nM incubated for 4 days by acridine orange/DAPI staining based analysis. It counts as functional. The settings on record: time 4.0 day.
In series [4] the test system is HL-60. As to the kind of experiment: Induction of differentiation in human HL-60 cells assessed as reduction in cell number at 10 nM incubated for 4 days by acridine orange/DAPI staining based analysis. The series is classed as functional. The settings on record: time 4.0 day.
Series [5] deals with KG-1. As to the kind of experiment: Induction of differentiation in human KG-1 cells assessed as reduction in cell number at 10 nM incubated for 4 days by acridine orange/DAPI staining based analysis. It counts as functional. The following applies: time 4.0 day.
Series [6] deals with Kasumi 1. The series is described as follows: Induction of differentiation in human Kasumi 1 cells assessed as reduction in cell number at 10 nM incubated for 4 days by acridine orange/DAPI staining based analysis. The series is classed as functional. The following applies: time 4.0 day.
Series [7] relates to OCI-AML-3. As to the kind of experiment: Induction of differentiation in human OCI-AML-3 cells assessed as reduction in cell number at 10 nM incubated for 4 days by acridine orange/DAPI staining based analysis. The following applies: time 4.0 day. It counts as functional.
Series [8] is described as follows: Metabolic stability in mouse S9 fraction assessed as compound remaining measured after 45 mins in absence of NADPH and […]. The settings on record: read-out: Stability. The series is classed as ADME, subcellular.
Series [9] relates to HL-60. The series is described as follows: Induction of morphological changes in human HL-60 cells assessed as variations in nuclear segmentation at 10 uM. The series is classed as functional, cell-based.
Series [10] has as its system Kasumi 1. The series is described as follows: Induction of differentiation in human Kasumi 1 cells assessed as reduction in cell number at 10 uM incubated for 4 days by acridine orange/DAPI staining based analysis. The series is classed as functional. The settings on record: time 4.0 day.
In series [11] the test system is THP-1. The series is described as follows: Induction of differentiation in human THP-1 cells assessed as reduction in cell number at 10 uM incubated for 4 days by acridine orange/DAPI staining based analysis. The settings on record: time 4.0 day. It counts as functional.
Series [12] has as its system HL-60. The series is described as follows: Induction of morphological changes in human HL-60 cells assessed as appearance of wider and lighter cytoplasm at 10 uM. The series is classed as functional, cell-based.
The test system of series [13] is KG-1. As to the kind of experiment: Induction of differentiation in human KG-1 cells assessed as reduction in cell number at 10 uM incubated for 4 days by acridine orange/DAPI staining based analysis. The series is classed as functional. The following applies: time 4.0 day.
The test system of series [14] is HL-60. The series is described as follows: Induction of morphological changes in human HL-60 cells assessed as variation in cell size at 10 uM. The series is classed as functional, cell-based.
In series [15] the test system is HL-60. The series is described as follows: Induction of morphological changes in human HL-60 cells assessed as appearance of granules and vacuoles at 10 uM. It counts as functional, cell-based.
The subject of series [16] is HL-60. The series is described as follows: Induction of differentiation in human HL-60 cells assessed as upregulation of CD11b response at 1 uM incubated for 4 days by flow cytometry analysis relative to control. The settings on record: time 4 day. It counts as functional.
For series [17], the system named is OCI-AML-3. As to the kind of experiment: Induction of differentiation in human OCI-AML-3 cells assessed as reduction in cell number at 10 uM incubated for 4 days by acridine orange/DAPI staining based analysis. The series is classed as functional. The following applies: time 4.0 day.
Series [18] relates to HL-60. As to the kind of experiment: Induction of differentiation in human HL-60 cells assessed as reduction in cell number at 10 uM incubated for 4 days by acridine orange/DAPI staining based analysis. The following applies: time 4.0 day. The series is classed as functional.
Series [19] has as its system HL-60. As to the kind of experiment: Induction of differentiation in human HL-60 cells assessed as upregulation of CD11b response at 10 uM incubated for 4 days by flow cytometry analysis relative to control. It counts as functional. The settings on record: time 4 day. For orientation: In flow cytometry, cells or beads pass a laser one at a time.
Series [20] has as its system ME-1. The series is described as follows: Induction of differentiation in human ME-1 cells assessed as reduction in cell number at 10 uM incubated for 4 days by acridine orange/DAPI staining based analysis. It counts as functional. The following applies: time 4.0 day.

≈ marks a conversion by molar mass, not a printed value. Calls of active or inactive are those of the source. No cut-off for these calls is given here. A value given as a limit tells only on which side of the number the result lay.

`COc1ccccc1-c1cc(NC=O)c2ncc(-c3ccc4c(c3)c(C)nn4C)n2c1`: the solubility thermodynamic in series [1] came to 6 µM (≈ 2.47 µg/mL).

For the compound `COc1cc(C#N)ccc1-c1cc(NS(C)(=O)=O)c2ncc(-c3ccc4c(cnn4C)c3)n2c1`, the solubility thermodynamic in series [1] came out at 2 µM (≈ 0.945 µg/mL).

Take `COc1ccccc1-c1cc(NC=O)c2ncc(-c3ccc4nn(C)c(C)c4c3)n2c1`: the solubility thermodynamic in series [1] worked out at 4 µM (≈ 1.65 µg/mL).

As for `COc1ccc(-c2cnc3c(N4CC5(COC5)C4)nc(-c4ccccc4OC)cn23)cc1OC`, the solubility thermodynamic in series [1] is 26 µM (≈ 11.9 µg/mL).

Consider `CCCCCCCCCCCCCC(=O)O[C@@H]1[C@@H](C)[C@@]2(O)[C@@H](C=C(CO)C[C@]3(O)C(=O)C(C)=C[C@@H]23)[C@@H]2C(C)(C)[C@]12OC(C)=O`, for which the outcome in series [2], in [3], in series [4], in series [5], in series [6] and in series [7] was Active.

On to `COc1ccc(-c2cnc3c(NC=O)nc(-c4ccccc4OC)cn23)cc1OC`, for which the remaining at 0.75 h in series [8] amounted to 0.5%. For the same compound, in series [1], the solubility thermodynamic was 1 µM (≈ 0.404 µg/mL).

Take `COc1ccc(-c2cnc3c(N4CCOCC4)nc(-c4ccccc4OC)cn23)cc1OC`: the solubility thermodynamic in series [1] worked out at 4 µM (≈ 1.79 µg/mL).

For `COc1ccc(-c2cnc3ncc(-c4ccccc4OC)cn23)cc1OC`, the remaining at 0.75 h in series [8] worked out at 70%. Moreover, in series [1], the solubility thermodynamic was found to be 1 µM (≈ 0.361 µg/mL).

As to `COc1ccc(-c2cnc3c(NC=O)cc(-c4ccccc4OC)cn23)cc1C#N`, the solubility thermodynamic in series [1] worked out at 2 µM (≈ 0.797 µg/mL).

For the compound `COc1ccccc1-c1cc(NC=O)c2ncc(-c3ccc4c(C)nn(C)c4c3)n2c1`, the solubility thermodynamic in series [1] worked out at 2 µM (≈ 0.823 µg/mL).

Take `COc1ccccc1-c1cc(NC=O)c2ncc(-c3ccccc3)n2c1`: the solubility thermodynamic in [1] is 2 µM (≈ 0.687 µg/mL).

Regarding `CNc1nc(-c2ccccc2OC)cn2c(-c3ccc(OC)c(OC)c3)cnc12`, the solubility thermodynamic in [1] came to 39 µM (≈ 15.2 µg/mL).

On to `COc1ccc(-c2cnc3c(N)cc(-c4ccccc4OC)cn23)cc1OC`, for which the solubility thermodynamic in series [1] is 38 µM (≈ 14.3 µg/mL).

For the compound `COc1cc(F)ccc1-c1cc(NS(C)(=O)=O)c2ncc(-c3ccc4c(cnn4C)c3)n2c1`, the solubility thermodynamic in series [1] was determined as 12 µM (≈ 5.59 µg/mL).

As to `COc1ccccc1-c1cc(NC=O)c2ncc(-c3ccc4nc(C)oc4c3)n2c1`, in series [1], the solubility thermodynamic came to 2 µM (≈ 0.797 µg/mL).

For `COc1ccccc1-c1cc(NC=O)c2nccn2c1`, the solubility thermodynamic in series [1] is over 200 µM.

As to `COc1ccc(-c2cnc3c(C(N)=O)cc(-c4ccccc4OC)cn23)cc1OC`, the solubility thermodynamic in series [1] was determined as 12 µM (≈ 4.84 µg/mL).

Regarding `Cn1ncc2cc(-c3cnc4c(NS(C)(=O)=O)cc(-c5ccc(F)cc5Cl)cn34)ccc21`, the solubility thermodynamic in [1] was 9 µM (≈ 4.23 µg/mL).

With `COc1ccc(-c2cnc3c(NS(C)(=O)=O)cc(-c4ccccc4OC)cn23)cc1OC`, in [1], the solubility thermodynamic turned out to be 43 µM (≈ 19.5 µg/mL).

With `COc1ccc(-c2cnc3ccc(-c4ccccc4OC)cn23)cc1OC`, the solubility thermodynamic in series [1] amounted to 156 µM (≈ 56.2 µg/mL).

As to `CC1=C(c2cc(NS(C)(=O)=O)c3ncc(-c4ccc5c(cnn5C)c4)n3c2)CCCC1`, the solubility thermodynamic in series [1] came out at 26 µM (≈ 11.3 µg/mL).

With `COc1ccc(-c2cnc3c(N(C)C=O)cc(-c4ccccc4OC)cn23)cc1OC`, the remaining at 0.75 h in series [8] worked out at 46%. The solubility thermodynamic in series [1] is 1 µM (≈ 0.417 µg/mL).

In the case of `CNc1cc(-c2ccccc2OC)cn2c(-c3ccc(OC)c(OC)c3)cnc12`, the remaining at 0.75 h in series [8] stood at 81%. Also, the solubility thermodynamic in series [1] is 8 µM (≈ 3.12 µg/mL).

Regarding `Cc1ccccc1-c1cc(NS(C)(=O)=O)c2ncc(-c3ccc4c(cnn4C)c3)n2c1`, the solubility thermodynamic in series [1] came to 13 µM (≈ 5.61 µg/mL).

Regarding `Cc1cc(C#N)ccc1-c1cc(NS(C)(=O)=O)c2ncc(-c3ccc4c(cnn4C)c3)n2c1`, in [1], the solubility thermodynamic was 26 µM (≈ 11.9 µg/mL).

For `COc1ccccc1-c1cc(NS(C)(=O)=O)c2ncc(-c3ccc4c(cnn4C)c3)n2c1`, the solubility thermodynamic in [1] is 18 µM (≈ 8.06 µg/mL).

Regarding `COc1ccc(-c2cnc3c(NC(C)=O)cc(-c4ccccc4OC)cn23)cc1OC`, in [8], the remaining at 0.75 h came to 1%. The solubility thermodynamic in series [1] came out at 39 µM (≈ 16.3 µg/mL).

Consider `COc1ccccc1-c1cc(NC=O)c2ncc(-c3ccc4c(cnn4C)c3)n2c1`, for which the solubility thermodynamic in series [1] came to 2 µM (≈ 0.795 µg/mL).

Consider `COc1ccc(-c2cnc3c(NC=O)cc(-c4ccccc4OC)cn23)cc1OC`, for which the outcome in [9], in series [10], in [11], in series [12], in series [13] and in series [14] was Active. Besides, the outcome in series [15], in series [17], in series [18] and in series [20] was Active. In addition, in series [8], the remaining at 0.75 h was determined as 28%. The values for the Activity in [16] and in series [19] were 14% and “<=78%”, respectively. Further, in [1], the solubility thermodynamic is 37 µM (≈ 14.9 µg/mL).

Regarding `COc1ccc(-n2cnc3cnc(-c4ccccc4OC)cc32)cc1OC`, in series [1], the solubility thermodynamic is 200 µM (≈ 72.3 µg/mL).

Source of the values: ChEMBL document CHEMBL5620396, “Phenotypic screening identifies a trisubstituted imidazo[1,2-a]pyridine series that induces differentiation in multiple AML cell lines” (Eur J Med Chem, 2023).
